The record followed here is publication PMC7714403 (JCI Insight, 2020).

Assay in all cases: KiNativ, MOLM13 live cells
What all share (assay type): cell-based

One assay has as its target Erk2 (Homo sapiens, UniProt P28482). To be noted: MOLM-13; 100 nM, 2 hours; Lys2; read-out: Inhibition vs DMSO. As to the method:
(§1) Samples were analyzed by KiNativ in situ kinase profiling by ActivX Biosciences.

Another assay addresses T1, IRAK4 (Homo sapiens, UniProt Q9NWZ3).
T1 sequence (Q9NWZ3 1-460): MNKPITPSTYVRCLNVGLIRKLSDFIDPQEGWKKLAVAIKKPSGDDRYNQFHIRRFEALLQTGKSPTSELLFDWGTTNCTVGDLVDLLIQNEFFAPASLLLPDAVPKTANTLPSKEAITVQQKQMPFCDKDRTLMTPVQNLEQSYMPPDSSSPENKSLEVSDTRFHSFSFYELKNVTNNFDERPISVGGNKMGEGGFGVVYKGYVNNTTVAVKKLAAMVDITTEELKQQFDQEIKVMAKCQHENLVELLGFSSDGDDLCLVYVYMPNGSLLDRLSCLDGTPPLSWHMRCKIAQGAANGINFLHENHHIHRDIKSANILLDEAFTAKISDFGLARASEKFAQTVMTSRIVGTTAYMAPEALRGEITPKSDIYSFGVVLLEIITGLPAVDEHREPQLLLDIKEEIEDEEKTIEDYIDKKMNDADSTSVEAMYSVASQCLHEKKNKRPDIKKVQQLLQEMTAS
As to conditions: 100 nM, 2 hours. As for the experimental part: as §1

The target in the next assay is T2, MAP2K6 (Homo sapiens, UniProt P52564).
T2 sequence (P52564 1-334): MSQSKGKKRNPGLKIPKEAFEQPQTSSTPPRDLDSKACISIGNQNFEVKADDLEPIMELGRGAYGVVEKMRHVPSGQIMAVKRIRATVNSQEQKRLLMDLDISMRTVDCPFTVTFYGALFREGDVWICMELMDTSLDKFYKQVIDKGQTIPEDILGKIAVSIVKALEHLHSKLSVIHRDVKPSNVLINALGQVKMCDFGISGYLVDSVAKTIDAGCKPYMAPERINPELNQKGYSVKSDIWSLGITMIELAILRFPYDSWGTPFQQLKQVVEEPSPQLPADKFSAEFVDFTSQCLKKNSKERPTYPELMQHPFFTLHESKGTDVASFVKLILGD
As to conditions: MOLM-13, 2 h, 100 nM. As to the method: as §1

The target of another assay is MAP3K2 (Homo sapiens, UniProt Q9Y2U5). To be noted: MOLM-13; 100 nM, 2 hours; Lys1; read-out: Inhibition vs DMSO. As for the experimental part:
as §1

Another assay has as its target MLK4 (Homo sapiens, UniProt Q5TCX8). As to conditions: MOLM-13; 100 nM, 2 hours; Lys2; read-out: Inhibition vs DMSO. As to the method: as §1
In another assay the target is T3, MLKL (Homo sapiens, UniProt Q8NB16).
T3 sequence (Q8NB16 1-471): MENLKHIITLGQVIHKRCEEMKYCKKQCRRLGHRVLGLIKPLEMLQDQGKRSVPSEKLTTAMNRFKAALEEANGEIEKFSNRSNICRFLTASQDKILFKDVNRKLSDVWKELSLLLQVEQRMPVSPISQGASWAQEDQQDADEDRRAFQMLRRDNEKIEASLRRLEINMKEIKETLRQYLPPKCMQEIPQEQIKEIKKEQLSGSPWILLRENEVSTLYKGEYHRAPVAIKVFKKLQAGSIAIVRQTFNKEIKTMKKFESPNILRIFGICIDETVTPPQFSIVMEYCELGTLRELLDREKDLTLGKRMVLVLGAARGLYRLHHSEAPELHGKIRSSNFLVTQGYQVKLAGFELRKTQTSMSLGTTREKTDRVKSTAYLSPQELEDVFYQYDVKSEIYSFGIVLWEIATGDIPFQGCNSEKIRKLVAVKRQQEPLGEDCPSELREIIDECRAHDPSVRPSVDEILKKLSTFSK
To be noted: MOLM-13, 2 h, 100 nM. As to the method:
as §1

Another assay deals with T4, PAN3 (Homo sapiens, UniProt Q58A45).
T4 sequence (Q58A45 1-887): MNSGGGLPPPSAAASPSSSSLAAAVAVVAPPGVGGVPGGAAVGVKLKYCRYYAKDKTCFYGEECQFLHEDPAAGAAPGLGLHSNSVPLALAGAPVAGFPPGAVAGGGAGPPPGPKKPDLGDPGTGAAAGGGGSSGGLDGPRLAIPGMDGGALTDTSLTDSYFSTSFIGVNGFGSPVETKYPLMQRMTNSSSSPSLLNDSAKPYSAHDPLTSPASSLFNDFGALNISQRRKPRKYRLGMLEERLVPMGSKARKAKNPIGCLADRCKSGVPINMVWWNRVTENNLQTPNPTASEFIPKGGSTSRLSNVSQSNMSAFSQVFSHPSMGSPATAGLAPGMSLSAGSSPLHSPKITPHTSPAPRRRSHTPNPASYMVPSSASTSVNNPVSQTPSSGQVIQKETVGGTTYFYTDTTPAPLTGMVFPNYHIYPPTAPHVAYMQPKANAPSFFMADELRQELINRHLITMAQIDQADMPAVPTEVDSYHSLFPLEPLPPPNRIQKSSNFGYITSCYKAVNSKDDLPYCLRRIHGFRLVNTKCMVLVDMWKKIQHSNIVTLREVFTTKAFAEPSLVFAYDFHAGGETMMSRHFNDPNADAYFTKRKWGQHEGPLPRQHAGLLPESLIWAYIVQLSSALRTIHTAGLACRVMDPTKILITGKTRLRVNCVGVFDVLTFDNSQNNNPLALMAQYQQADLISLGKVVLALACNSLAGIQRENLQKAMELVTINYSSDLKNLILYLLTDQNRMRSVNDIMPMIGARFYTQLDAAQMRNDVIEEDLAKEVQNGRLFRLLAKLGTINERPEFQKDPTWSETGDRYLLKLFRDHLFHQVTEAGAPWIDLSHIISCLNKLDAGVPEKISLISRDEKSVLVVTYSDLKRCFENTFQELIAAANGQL
To be noted: MOLM-13, 2 h, 100 nM, ATP, read-out: Inhibition vs DMSO. As for the experimental part: as §1

The target in the next assay is PIP5K3 (Homo sapiens, UniProt Q9Y2I7). To be noted: 100 nM, 2 hours; ATP. As for the experimental part:
as §1

In a further assay the target is RIPK3 (Homo sapiens, UniProt Q9Y572). As to conditions: MOLM-13; 100 nM, 2 hours; Lys2; read-out: Inhibition vs DMSO. As to the method: as §1
The next assay concerns the target T5, RSK1 domain2 (Homo sapiens, UniProt Q15418).
T5 construct: RSK1 domain2
As to conditions: MOLM-13; 100 nM, 2 hours; Lys2; read-out: Inhibition vs DMSO. As for the experimental part: as §1

A further assay deals with ZAK (Homo sapiens, UniProt Q9NYL2). To be noted: MOLM-13; 100 nM, 2 hours; Lys1; read-out: Inhibition vs DMSO. As for the experimental part: as §1
The mark [1] stands for this setting: Lys1, read-out: Inhibition vs DMSO.

Like-named read-outs stand apart in the source and are kept apart here.

ZAK, sequence (Q9NYL2 whole entry): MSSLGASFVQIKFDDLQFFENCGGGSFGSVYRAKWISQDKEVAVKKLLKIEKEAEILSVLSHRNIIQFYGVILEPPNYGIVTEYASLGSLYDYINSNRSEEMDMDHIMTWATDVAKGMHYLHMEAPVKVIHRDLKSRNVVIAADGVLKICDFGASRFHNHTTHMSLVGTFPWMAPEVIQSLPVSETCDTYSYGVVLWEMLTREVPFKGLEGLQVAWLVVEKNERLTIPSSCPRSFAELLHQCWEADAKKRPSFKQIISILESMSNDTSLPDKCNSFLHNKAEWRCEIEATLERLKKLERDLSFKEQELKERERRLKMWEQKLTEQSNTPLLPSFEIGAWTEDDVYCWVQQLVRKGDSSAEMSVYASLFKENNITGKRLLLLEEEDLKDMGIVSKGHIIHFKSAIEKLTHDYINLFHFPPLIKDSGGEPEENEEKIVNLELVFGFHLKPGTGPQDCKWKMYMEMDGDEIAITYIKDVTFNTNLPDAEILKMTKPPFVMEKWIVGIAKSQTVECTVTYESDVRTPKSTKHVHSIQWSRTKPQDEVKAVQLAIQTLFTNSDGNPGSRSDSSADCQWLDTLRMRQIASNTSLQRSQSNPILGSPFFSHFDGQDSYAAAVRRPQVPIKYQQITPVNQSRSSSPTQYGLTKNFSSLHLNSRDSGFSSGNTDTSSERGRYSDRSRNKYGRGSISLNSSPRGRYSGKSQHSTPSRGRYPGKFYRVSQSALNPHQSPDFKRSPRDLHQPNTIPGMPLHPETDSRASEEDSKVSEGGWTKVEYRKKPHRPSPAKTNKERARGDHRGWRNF
PIP5K3, sequence (Q9Y2I7 whole entry): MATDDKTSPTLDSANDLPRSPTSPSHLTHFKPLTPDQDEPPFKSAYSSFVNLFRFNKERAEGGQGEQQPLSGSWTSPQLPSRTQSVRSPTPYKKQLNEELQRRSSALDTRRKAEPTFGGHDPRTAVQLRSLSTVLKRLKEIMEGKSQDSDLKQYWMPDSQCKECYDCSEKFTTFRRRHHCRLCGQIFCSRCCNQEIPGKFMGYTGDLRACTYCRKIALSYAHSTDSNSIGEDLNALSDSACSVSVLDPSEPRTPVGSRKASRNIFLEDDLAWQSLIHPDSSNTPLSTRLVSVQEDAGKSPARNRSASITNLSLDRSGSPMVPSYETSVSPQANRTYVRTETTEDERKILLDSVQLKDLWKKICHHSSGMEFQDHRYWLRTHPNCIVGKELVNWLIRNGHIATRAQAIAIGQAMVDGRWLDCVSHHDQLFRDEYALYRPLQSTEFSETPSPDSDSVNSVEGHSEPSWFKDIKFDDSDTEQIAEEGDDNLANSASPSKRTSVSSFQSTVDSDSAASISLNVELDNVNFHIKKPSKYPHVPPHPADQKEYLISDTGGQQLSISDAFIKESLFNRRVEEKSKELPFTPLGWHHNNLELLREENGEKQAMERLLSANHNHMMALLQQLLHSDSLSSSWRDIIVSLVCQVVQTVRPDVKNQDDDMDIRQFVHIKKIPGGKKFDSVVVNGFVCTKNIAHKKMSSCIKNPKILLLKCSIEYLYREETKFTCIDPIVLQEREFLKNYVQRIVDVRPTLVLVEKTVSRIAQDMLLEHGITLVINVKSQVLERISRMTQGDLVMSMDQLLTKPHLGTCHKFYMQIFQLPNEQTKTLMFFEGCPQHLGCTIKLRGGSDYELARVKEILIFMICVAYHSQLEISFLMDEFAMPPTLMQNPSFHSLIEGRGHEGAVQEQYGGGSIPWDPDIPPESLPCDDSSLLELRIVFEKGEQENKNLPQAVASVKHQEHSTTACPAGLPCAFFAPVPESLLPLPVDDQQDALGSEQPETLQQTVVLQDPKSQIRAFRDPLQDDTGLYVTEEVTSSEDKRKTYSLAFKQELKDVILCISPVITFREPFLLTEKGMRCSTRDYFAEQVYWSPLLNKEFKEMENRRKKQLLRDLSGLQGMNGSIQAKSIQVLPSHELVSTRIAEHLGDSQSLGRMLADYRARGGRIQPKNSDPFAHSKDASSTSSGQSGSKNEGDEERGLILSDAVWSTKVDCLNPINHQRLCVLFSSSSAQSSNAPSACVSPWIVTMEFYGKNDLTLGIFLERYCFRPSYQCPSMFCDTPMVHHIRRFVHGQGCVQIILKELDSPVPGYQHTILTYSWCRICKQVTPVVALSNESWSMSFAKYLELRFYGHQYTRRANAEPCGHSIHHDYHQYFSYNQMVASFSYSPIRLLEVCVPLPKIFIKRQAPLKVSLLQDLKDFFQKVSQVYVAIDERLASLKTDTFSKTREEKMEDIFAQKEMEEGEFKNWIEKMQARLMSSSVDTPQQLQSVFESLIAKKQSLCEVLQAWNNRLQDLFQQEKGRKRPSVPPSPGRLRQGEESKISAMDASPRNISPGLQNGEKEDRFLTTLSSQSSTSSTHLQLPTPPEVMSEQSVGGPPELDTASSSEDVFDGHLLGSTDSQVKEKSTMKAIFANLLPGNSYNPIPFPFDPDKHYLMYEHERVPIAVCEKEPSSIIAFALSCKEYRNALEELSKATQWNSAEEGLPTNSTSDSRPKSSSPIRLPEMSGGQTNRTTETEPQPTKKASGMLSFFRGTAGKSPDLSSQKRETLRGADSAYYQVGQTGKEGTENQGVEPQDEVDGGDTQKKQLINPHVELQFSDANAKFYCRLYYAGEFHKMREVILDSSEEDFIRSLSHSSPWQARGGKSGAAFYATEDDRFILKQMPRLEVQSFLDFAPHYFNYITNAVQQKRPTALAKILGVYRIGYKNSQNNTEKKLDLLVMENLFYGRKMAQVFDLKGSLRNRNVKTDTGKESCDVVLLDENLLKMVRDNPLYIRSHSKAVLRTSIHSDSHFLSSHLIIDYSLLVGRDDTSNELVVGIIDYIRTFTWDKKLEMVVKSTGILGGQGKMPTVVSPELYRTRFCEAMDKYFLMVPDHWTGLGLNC
T5 sequence (Q15418 whole entry, the tested form may be a part): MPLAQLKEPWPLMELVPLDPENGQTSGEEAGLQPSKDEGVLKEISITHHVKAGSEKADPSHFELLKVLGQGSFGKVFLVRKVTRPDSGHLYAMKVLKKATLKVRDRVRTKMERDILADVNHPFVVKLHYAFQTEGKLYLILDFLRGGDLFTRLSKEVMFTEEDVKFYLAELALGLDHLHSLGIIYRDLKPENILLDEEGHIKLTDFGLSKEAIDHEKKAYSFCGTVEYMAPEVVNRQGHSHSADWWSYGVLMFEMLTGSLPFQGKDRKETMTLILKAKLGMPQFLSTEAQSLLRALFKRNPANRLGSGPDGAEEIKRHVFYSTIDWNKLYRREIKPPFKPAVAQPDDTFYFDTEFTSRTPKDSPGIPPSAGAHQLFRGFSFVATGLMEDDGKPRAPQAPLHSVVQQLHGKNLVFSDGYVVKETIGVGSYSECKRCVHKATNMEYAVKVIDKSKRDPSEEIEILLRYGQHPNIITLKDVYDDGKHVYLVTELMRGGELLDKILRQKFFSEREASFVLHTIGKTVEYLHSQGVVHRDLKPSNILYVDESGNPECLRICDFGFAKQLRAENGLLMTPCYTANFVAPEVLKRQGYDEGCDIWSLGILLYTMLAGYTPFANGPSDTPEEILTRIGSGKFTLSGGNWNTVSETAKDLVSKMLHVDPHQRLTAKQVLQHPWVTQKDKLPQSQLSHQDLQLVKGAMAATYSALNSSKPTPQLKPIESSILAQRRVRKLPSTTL
RIPK3, sequence (Q9Y572 whole entry, the tested form may be a part): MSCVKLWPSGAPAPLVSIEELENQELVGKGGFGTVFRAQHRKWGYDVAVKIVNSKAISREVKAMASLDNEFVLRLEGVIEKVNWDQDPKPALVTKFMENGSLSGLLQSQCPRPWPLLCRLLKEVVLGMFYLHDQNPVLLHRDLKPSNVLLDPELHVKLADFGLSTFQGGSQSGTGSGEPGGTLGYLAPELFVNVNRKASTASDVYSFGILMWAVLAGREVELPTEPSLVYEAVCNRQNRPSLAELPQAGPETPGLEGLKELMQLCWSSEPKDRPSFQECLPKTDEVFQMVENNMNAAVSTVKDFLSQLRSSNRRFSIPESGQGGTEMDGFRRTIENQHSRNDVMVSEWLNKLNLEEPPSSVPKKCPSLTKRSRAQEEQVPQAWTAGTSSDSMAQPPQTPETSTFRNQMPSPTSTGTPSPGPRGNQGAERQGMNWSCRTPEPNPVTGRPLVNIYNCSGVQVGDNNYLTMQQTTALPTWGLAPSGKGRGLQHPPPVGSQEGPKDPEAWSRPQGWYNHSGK
MAP3K2, sequence (Q9Y2U5 whole entry): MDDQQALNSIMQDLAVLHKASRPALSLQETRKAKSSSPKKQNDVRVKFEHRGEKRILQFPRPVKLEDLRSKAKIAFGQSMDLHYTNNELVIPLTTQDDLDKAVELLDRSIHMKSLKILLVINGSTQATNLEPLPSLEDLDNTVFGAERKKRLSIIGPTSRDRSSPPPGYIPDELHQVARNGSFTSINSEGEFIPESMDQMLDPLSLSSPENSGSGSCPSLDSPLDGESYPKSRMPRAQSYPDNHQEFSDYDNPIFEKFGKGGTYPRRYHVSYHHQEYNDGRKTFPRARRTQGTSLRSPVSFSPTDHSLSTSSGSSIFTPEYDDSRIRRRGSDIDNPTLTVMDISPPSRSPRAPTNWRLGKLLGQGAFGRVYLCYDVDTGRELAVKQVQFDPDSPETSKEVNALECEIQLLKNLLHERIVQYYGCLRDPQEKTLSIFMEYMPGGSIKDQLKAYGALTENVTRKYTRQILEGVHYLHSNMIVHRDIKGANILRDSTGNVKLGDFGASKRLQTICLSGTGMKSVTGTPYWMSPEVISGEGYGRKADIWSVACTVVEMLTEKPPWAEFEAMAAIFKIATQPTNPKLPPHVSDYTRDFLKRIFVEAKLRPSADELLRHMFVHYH

For `CN1CCN(Cc2ccc(Nc3ncc(Cl)c(Nc4ccccc4S(=O)(=O)N(C)C)n3)cc2)CC1` [TP-0903], the inhibition at 0.1 µM at Erk2 was -9.4%; at MAP2K6 (setting [1]), -2.4%; at MAP2K6 (Lys2, read-out: Inhibition vs DMSO), -11.9%; on MAP3K2, -7.5%; on MLK4, -13.5%; at MLKL (Activation Loop, read-out: Inhibition vs DMSO), -29%. Moreover, the inhibition at 0.1 µM at MLKL (setting [1]) is -26.9%; at MLKL (Protein Kinase Domain, read-out: Inhibition vs DMSO), -65.7%; at PAN3 (IQKSSNFGYITSCYK) it was 11.2%; on PAN3 (VMDPTKILITGK) it was -0.5%; at RIPK3 it was 6.4%; at RSK1 domain2 it was -19.8%. Besides, at ZAK, the inhibition at 0.1 µM was determined as 7.6%. For the same compound, the “Inhibition vs DMSO” value at IRAK4 (Lys1) is 13.2%; at IRAK4 (Lys2), 18.7%; on PIP5K3 it was 50.9%.
